Data from patent US20090149496A1, “INHIBITORS OF THE TASK-1 AND TASK-3 ION CHANNEL” (SANOFI-AVENTIS DEUTSCHLAND GMBH, priority 2006, published 2009).

How the values were obtained:
[1] = test system: respiration; assay: Respiratory minute volume in narcotized rats; format: in vivo, rat
Experimental: (§1) E) Investigation of the Effect on the Electromyographic Activity of the Genioglossus Muscle and the Respiratory Minute Volume in Rats
(§2) The compound of example 1 (R-enantiomer) and of example 2 was investigated for electromyographic activity of the genioglossus muscle and for respiration-stimulating effect on male urethane-chloralose-narcotized, vagotomized rats with a weight of from 250 to 300 g. For this purpose, the genioglossus EMG activity was measured by means of EMG electrodes. The respiration-stimulating effect was investigated by measuring the respiratory minute volume by means of a tracheal cannula. For the investigations, the rats were administered intravenously successively with 1, 3 and 10 mg/kg of the compound of example 1 (R-enantiomer) and of example 2, with glycofurol (50%) as the vehicle, at 15 minute intervals. CO2 was used as the positive control for the stimulation of the genioglossus activity and of the respiratory minute volume.

[2] = test system: rats; assay: Compatibility in rats; format: in vivo, rat; conditions: oral administration of 1000 mg/kg
Source text: F) Investigation of Compatibility in Rats

[3] = target: T1, TASK1 (mouse) (Mus musculus, UniProt O35111); assay: Activity on the TASK-1 channel in Xenopus oocytes (two-microelectrode voltage clamp), mouse channel; format: cell-based; conditions: mouse TASK-1 expressed in Xenopus oocytes, voltage jumps to 40 mV, pH 7.4, room temperature; read-out: IC50 (μmol) TASK1 (mouse)
T1 construct: expressed in transfected cells; host or cells: Xenopus laevis oocytes injected with in vitro synthesized RNA
T1 sequence (O35111 whole entry): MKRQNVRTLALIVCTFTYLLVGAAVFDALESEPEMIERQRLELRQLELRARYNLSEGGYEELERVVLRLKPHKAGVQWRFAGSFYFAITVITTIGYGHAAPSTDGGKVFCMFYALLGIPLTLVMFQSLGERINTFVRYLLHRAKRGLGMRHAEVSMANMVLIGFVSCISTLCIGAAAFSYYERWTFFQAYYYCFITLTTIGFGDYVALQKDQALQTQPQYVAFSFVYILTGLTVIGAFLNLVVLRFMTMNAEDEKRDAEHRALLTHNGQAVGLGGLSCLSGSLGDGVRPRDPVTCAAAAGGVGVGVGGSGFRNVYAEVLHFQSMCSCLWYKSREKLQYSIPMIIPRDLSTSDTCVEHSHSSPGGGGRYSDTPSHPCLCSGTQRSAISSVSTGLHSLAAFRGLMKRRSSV
Experimental: (§3) A) Determination of the Activity on the TASK-1 Channel in Xenopus Oocytes
(§4) Mouse or human TASK-1 channels were expressed in Xenopus oocytes. For this purpose, oocytes were first isolated from Xenopus levis and defolliculated. Subsequently, TASK-1-encoding RNA synthesized in vitro was injected into these oocytes. After two days of TASK-1 protein expression, TASK-1 currents were measured on the oocytes with the two-microelectrode voltage clamp technique. In this measurement, the TASK-1 channels were generally activated with voltage jumps lasting 250 ms to 40 mV. The bath was flushed with a solution of the following composition: NaCl 96 mM, KCl 2 mM, CaCl2 1.8 mM, MgCl2 1 mM, HEPES 5 mM (titrated to pH 7.4 with NaOH). These experiments were performed at room temperature. For data acquisition and analysis, the following were used: Geneclamp amplifier (Axon Instruments, Foster City, USA) and MacLab D/A converter and software (ADinstruments, Castle Hill, Australia). The inventive substances were tested by adding them to the bath solution in different concentrations. The effects of the substances were calculated as the percentage inhibition of the TASK-1 control current which was obtained when no substance was added to the solution. The data was subsequently fitted to the Hill equation in order to determine the half-maximum inhibitory concentrations (IC50 values) for the particular substances.

[4] = test system: genioglossus muscle; assay: Electromyographic activity of the genioglossus muscle in narcotized rats; format: in vivo, rat
Experimental: as §1, §2

[5] = target: T2, TASK1 (human) (Homo sapiens, UniProt O14649); assay: Activity on the TASK-1 channel in Xenopus oocytes (two-microelectrode voltage clamp), human channel; format: cell-based; design: expressed in transfected cells; host or cells: Xenopus laevis oocytes injected with in vitro synthesized RNA; conditions: human TASK-1 expressed in Xenopus oocytes, voltage jumps to 40 mV, pH 7.4, room temperature; read-out: IC50 (μmol) TASK1 (human)
T2 sequence (O14649 whole entry): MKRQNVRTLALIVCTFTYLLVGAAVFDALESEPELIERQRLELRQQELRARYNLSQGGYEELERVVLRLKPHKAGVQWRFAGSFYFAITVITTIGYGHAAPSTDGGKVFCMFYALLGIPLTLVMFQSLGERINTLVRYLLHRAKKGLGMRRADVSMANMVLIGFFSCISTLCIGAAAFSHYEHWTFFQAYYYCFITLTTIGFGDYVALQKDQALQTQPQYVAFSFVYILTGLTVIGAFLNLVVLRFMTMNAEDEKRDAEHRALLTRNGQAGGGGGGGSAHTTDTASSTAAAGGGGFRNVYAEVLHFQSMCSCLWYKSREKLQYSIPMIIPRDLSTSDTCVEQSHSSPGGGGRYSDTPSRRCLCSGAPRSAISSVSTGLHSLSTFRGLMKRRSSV
Experimental: as §3, §4

[6] = test system: respiration in rabbits; assay: Action on respiration in rabbits (propofol-induced apnea); format: in vivo; conditions: rabbit, 10 mg/kg i.v., propofol 10 mg/kg/min, n = 13
Experimental: D) Investigation of the Action on Respiration in Rabbits
An apnea was induced in the rabbit by infusion of the narcotic propofol, 10 mg/kg/min. The vehicle used for the compound of example 1 (R-enantiomer) was DMSO/PEG (0.2 ml/1.8 ml). The time from the start of propofol infusion up to the apnea was recorded.

[7] = target: T3, human TASK-3 channel (Homo sapiens, UniProt Q9NPC2); assay: Activity on the TASK-3 channel by patch-clamp on CHO cells; format: cell-based; conditions: whole cell, CHO cells expressing human TASK-3, read-out: IC50 (μmol/l) TASK3 (human)
T3 construct: expressed in transfected cells; host or cells: CHO DHFR-minus cells, clone CHO-244-8-1
T3 sequence (Q9NPC2 whole entry): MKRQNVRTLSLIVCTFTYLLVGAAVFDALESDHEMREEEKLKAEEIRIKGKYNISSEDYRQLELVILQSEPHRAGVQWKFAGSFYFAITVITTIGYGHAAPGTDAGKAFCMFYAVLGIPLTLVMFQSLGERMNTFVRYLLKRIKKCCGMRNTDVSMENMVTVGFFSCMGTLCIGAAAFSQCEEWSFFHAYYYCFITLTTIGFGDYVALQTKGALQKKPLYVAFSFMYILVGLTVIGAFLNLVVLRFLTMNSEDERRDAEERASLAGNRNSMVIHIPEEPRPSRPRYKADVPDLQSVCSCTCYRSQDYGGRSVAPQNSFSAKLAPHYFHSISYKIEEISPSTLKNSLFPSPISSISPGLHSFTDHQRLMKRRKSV
Experimental: C) Determination of the Activity on the TASK-3 Channel by Patch-Clamp Investigations
With the aid of the patch-clamp technique, the inhibition of the human TASK-3 current by the example compounds was measured on CHO cells in which the human TASK-3 channel is expressed. To produce the TASK-3 cell line, the human TASK-3 cDNA (Genbank, Accession Number AF248241) was cloned into the eukaryotic expression vector p658, which bears a DHFR (dihydrofolate reductase) resistance gene [reference: Gene 1994 (149), 341-344, 1994]. CHO (Chinese hamster ovary) DHFR-minus cells were transfected with the TASK-3 expression construct using the Fugene reagent (Roche Biochemicals) according to the manufacturer's instructions. […] Resulting cell clones were analyzed for the expression of TASK-3 with the aid of a fluorescence-based activity assay in a FlexStation (Molecular Devices) and with a membrane potention-sensitive dye (Molecular Devices FMP Dye Kit). […] TASK-3-positive cell clones were subsequently analyzed for resulting potassium currents with the patch-clamp technique. […]
To investigate the substances, the cells were introduced into a measurement chamber which is mounted on an inverted microscope. […] The concentration of the half-maximum inhibition of the current (IC50 value) was determined by fitting the curve to the mathematical Hill equation.
In this analysis, the following IC50 values were determined: […]

[8] = target: T2, TASK1 (human); assay: Activity on the TASK-1 channel with the FLIPR technique on CHO cells; format: cell-based; design: expressed in transfected cells; host or cells: CHO cells; conditions: inhibition of human TASK-1 current, 10 μmol/l
Source text: B) Determination of the Activity on the TASK-1 Channel with the FLIPR Technique

CCCCS(=O)(=O)Nc1ccccc1C(=O)N[C@H](CC)c1ccc(OC)nc1 [Example 1 (R-enantiomer), 2-(Butyl-1-sulfonylamino)-N-[1(R)-(6-methoxypyridin-3-yl)propyl]benzamide]
Respiratory minute volume (mean) ([1]; 1 mg/kg intravenously): 246 mL/min
Respiratory minute volume (mean) ([1]; 3 mg/kg intravenously): 317 mL/min
Respiratory minute volume (mean) ([1]; 10 mg/kg intravenously): 375 mL/min
Effect on the respiratory minute volume (in words) ([1]; summary of tables 3 and 5): stimulate
Side-effects [2]: no side-effects were observed
IC50 [3]: 150 nM
EMG activity of the genioglossus muscle (mean) ([4]; 1 mg/kg intravenously): 4.45 arbitrary units
EMG activity of the genioglossus muscle (mean) ([4]; 3 mg/kg intravenously): 5.59 arbitrary units
EMG activity of the genioglossus muscle (mean) ([4]; 10 mg/kg intravenously): 7.18 arbitrary units
Effect on the electromyographic activity of the genioglossus muscle (in words) ([4]; summary of tables 2 and 4): stimulate
IC50 [5]: 100 nM
melting point: 97 °C
Time from the start of propofol infusion up to the apnea (mean) [6]: 5.63 min
IC50 [7]: 1 µmol/L
inhibition at 10 µM [8]: 81%
